pIC50: −log10 of the molar value.
Biological target: T1, HCV NS5B polymerase (NS5BΔCT21) (Hepatitis C virus genotype 1b, UniProt Q9WMX2)
T1 construct: A soluble C-terminal 21-amino acid truncated NS5B enzyme form; polyhistidine (C); made in house; host or cells: Escherichia coli
Assay: HCV NS5B Polymerase Inhibition Assay
Format: biochemical, HCV-Con 1 isolate
Source text: A chemically synthesized 75-mer version, designated DCoH75, whose sequence matches the 3′-end of D-RNA, and DCoH75ddC, where the 3′-terminal cytidine of DCoH75 is replaced by dideoxycytidine, were used for assaying the NS5B enzyme activity as described in Ferrari et al., 12th International Symposium on HCV and Related Viruses, P-306 (2005). The sequence of the template RNA was: 5′-UGUGCCGGUCUUUCUGAACGGGAUAUAAACCUGGCCAGCUUCAUCGAACAAGUUGCCGUGUCUAUGACAUAGAUC-3′ (SEQ ID NO: 1). A soluble C-terminal 21-amino acid truncated NS5B enzyme form (NS5BΔCT21, from HCV-Con 1 isolate, genotype 1b, Genbank accession number AJ238799) was produced and purified from Escherichia coli as C-terminal polyhistidine-tagged fusion protein as described in Ferrari et al., J. Virol. 73:1649-1654 (1999). A typical assay contained 20 mM Hepes pH 7.3, 10 mM MgCl2, 60 mM NaCl, 100 μg/ml BSA, 20 units/ml RNasin, 7.5 mM DTT, 0.1 μM ATP/GTP/UTP, 0.026 μM CTP, 0.25 mM GAU, 0.03 μM RNA template, 20 μCi/ml [^33P]-CTP, 2% DMSO, and 30 or 150 nM NS5B enzyme. Reactions were incubated at 22° C. for 2 hours, then stopped by adding 150 mM EDTA, washed in DE81 filter plate in 0.5M di-basic sodium phosphate buffer, pH 7.0, and counted using Packard TopCount after the addition of scintillation cocktail. Polynucleotide synthesis was monitored by the incorporation of radiolabeled CTP. The effect of the Compounds of Formula (I) on the polymerase activity was evaluated by adding various concentrations of a Compound of Formula (I), typically in 10 serial 2-fold dilutions, to the assay mixture. The starting concentrations ranged from 200 μM to 1 μM. An IC50 value for the inhibitor, defined as the compound concentration that provides 50% inhibition of polymerase activity, was determined by fitting the cpm data to the Hill equation Y=100/(1+10̂((LogIC50−X)*HillSlope)), where X is the logarithm of compound concentration, and Y is the % inhibition. Ferrari et al., 12th International Symposium on HCV and Related Viruses, P-306 (2005) described in detail this assay procedure. It should be noted that such an assay as described is exemplary and not intended to limit the scope of the invention. The skilled practitioner can appreciate that modifications including but not limited to RNA template, primer, nucleotides, NS5B polymerase form, buffer composition, can be made to develop similar assays that yield the same result for the efficacy of the compounds and compositions described in the invention.
NS5B polymerase inhibition data was calculated for the compounds of the present invention using this method and is set forth in the table below.

CC(C)c1ccc(NC(=O)c2cccnc2)c(N2CCN(c3cnccn3)CC2)c1 [Compound 1]
pIC50: 5.52

Cc1ncccc1C(=O)Nc1ccc(C(C)C)cc1N1CCN(c2cnccn2)CC1 [Compound 2]
pIC50: 6.28

CC(C)c1ccc(NC(=O)c2cccnc2C2CC2)c(N2CCN(c3cnccn3)CC2)c1 [Compound 3]
pIC50: 5.70

C=C(C)c1ncccc1C(=O)Nc1ccc(C(C)C)cc1N1CCN(c2cnccn2)CC1 [Compound 4]
pIC50: < 3.70

CC(C)c1ccc(NC(=O)c2cccnc2-c2ccccc2)c(N2CCN(c3cnccn3)CC2)c1 [Compound 5]
pIC50: < 3.70

CC(C)c1ccc(NC(=O)c2cccnc2F)c(N2CCN(c3cnccn3)CC2)c1 [Compound 6]
pIC50: 5.66

CC(C)c1ccc(NC(=O)c2cccnc2C(F)(F)F)c(N2CCN(c3cnccn3)CC2)c1 [Compound 7]
pIC50: 5.64

CC(C)c1ccc(NC(=O)c2cccnc2N)c(N2CCN(c3cnccn3)CC2)c1 [Compound 8]
pIC50: 6.00

CC(C)c1ccc(NC(=O)c2cccc(O)n2)c(N2CCN(c3cnccn3)CC2)c1 [Compound 9]
pIC50: 4.34

CC(C)c1ccc(NC(=O)c2cccnc2O)c(N2CCN(c3cnccn3)CC2)c1 [Compound 10]
pIC50: 5.52

COc1ncccc1C(=O)Nc1ccc(C(C)C)cc1N1CCN(c2cnccn2)CC1 [Compound 11]
pIC50: < 4.70

CC(C)c1ccc(NC(=O)c2cccc(F)c2)c(N2CCN(c3cnccn3)CC2)c1 [Compound 12]
pIC50: 6.00

Cc1c(F)cccc1C(=O)Nc1ccc(C(C)C)cc1N1CCN(c2cnccn2)CC1 [Compound 13]
pIC50: 5.39

Cc1c(F)cc(F)cc1C(=O)Nc1ccc(C(C)C)cc1N1CCN(c2cnccn2)CC1 [Compound 14]
pIC50: 6.27

Cc1c(F)ccc(F)c1C(=O)Nc1ccc(C(C)C)cc1N1CCN(c2cnccn2)CC1 [Compound 15]
pIC50: 4.27

Cc1c(F)cc(C(=O)Nc2ccc(C(C)C)cc2N2CCN(c3cnccn3)CC2)cc1F [Compound 16]
pIC50: 5.25

Cc1ccc(C(=O)Nc2ccc(C(C)C)cc2N2CCN(c3cnccn3)CC2)cn1 [Compound 17]
pIC50: 4.85

Cc1cncc(C(=O)Nc2ccc(C(C)C)cc2N2CCN(c3cnccn3)CC2)c1 [Compound 18]
pIC50: 5.64

CC(C)c1ccc(NC(=O)c2cnc3ccccc3c2)c(N2CCN(c3cnccn3)CC2)c1 [Compound 19]
pIC50: 5.17

Cc1ncsc1C(=O)Nc1ccc(C(C)C)cc1N1CCN(c2cnccn2)CC1 [Compound 20]
pIC50: 6.24

Cc1nc(Br)sc1C(=O)Nc1ccc(C(C)C)cc1N1CCN(c2cnccn2)CC1 [Compound 21]
pIC50: 5.52

Cc1nc(N(C)C)sc1C(=O)Nc1ccc(C(C)C)cc1N1CCN(c2cnccn2)CC1 [Compound 22]
pIC50: 5.00

CC(C)c1ccc(NC(=O)c2ccsc2)c(N2CCN(c3cnccn3)CC2)c1 [Compound 23]
pIC50: 5.15

CC(C)c1ccc(NC(=O)c2cnc3[nH]ccc3c2)c(N2CCN(c3cnccn3)CC2)c1 [Compound 24]
pIC50: < 4.70

CC(C)c1ccc(NC(=O)c2ccc(C(F)(F)F)nc2)c(N2CCN(c3cnccn3)CC2)c1 [Compound 25]
pIC50: 5.64

CC(C)c1ccc(NC(=O)c2cnccc2C(F)(F)F)c(N2CCN(c3cnccn3)CC2)c1 [Compound 26]
pIC50: < 4.70

Cc1oncc1C(=O)Nc1ccc(C(C)C)cc1N1CCN(c2cnccn2)CC1 [Compound 27]
pIC50: 4.89

Cc1ncoc1C(=O)Nc1ccc(C(C)C)cc1N1CCN(c2cnccn2)CC1 [Compound 28]
pIC50: 4.85

Cc1occc1C(=O)Nc1ccc(C(C)C)cc1N1CCN(c2cnccn2)CC1 [Compound 29]
pIC50: 4.82

CC(C)c1ccc(NC(=O)C2CCOCC2)c(N2CCN(c3cnccn3)CC2)c1 [Compound 31]
pIC50: < 4.70

CC(C)c1ccc(NC(=O)C2CCCNC2)c(N2CCN(c3cnccn3)CC2)c1 (stereo not drawn) [Compound 32]
pIC50: < 3.70

CC(C)c1ccc(NC(=O)c2ccccn2)c(N2CCN(c3cnccn3)CC2)c1 [Compound 33]
pIC50: < 4.70

CC(C)c1ccc(NC(=O)c2cncnc2)c(N2CCN(c3cnccn3)CC2)c1 [Compound 34]
pIC50: < 4.70

CC(C)c1ccc(NC(=O)c2ccnnc2)c(N2CCN(c3cnccn3)CC2)c1 [Compound 35]
pIC50: < 4.70

Cc1cnc(C(=O)Nc2ccc(C(C)C)cc2N2CCN(c3cnccn3)CC2)cn1 [Compound 36]
pIC50: < 4.70

CC(C)c1ccc(NC(=O)c2ccnc(NC(=O)C(C)(C)C)c2)c(N2CCN(c3cnccn3)CC2)c1 [Compound 37]
pIC50: < 4.70

Cc1nocc1C(=O)Nc1ccc(C(C)C)cc1N1CCN(c2cnccn2)CC1 [Compound 38]
pIC50: 4.89

Cc1n[nH]cc1C(=O)Nc1ccc(C(C)C)cc1N1CCN(c2cnccn2)CC1 [Compound 39]
pIC50: < 3.70

Cc1cncc(N2CCN(c3cc(C(C)C)ccc3NC(=O)c3cccnc3)CC2)n1 [Compound 40]
pIC50: 6.30

CC(C)c1ccc(NC(=O)c2cccnc2)c(N2CCN(c3ccncn3)CC2)c1 [Compound 41]
pIC50: 6.25

Cc1nccc(N2CCN(c3cc(C(C)C)ccc3NC(=O)c3cccnc3)CC2)n1 [Compound 42]
pIC50: 6.80

CC(C)c1ccc(NC(=O)c2cccnc2)c(N2CCN(c3ncccn3)CC2)c1 [Compound 43]
pIC50: 5.64

Cc1ccnc(N2CCN(c3cc(C(C)C)ccc3NC(=O)c3cccnc3)CC2)n1 [Compound 44]
pIC50: 5.82

Cc1nccnc1N1CCN(c2cc(C(C)C)ccc2NC(=O)c2cccnc2)CC1 [Compound 45]
pIC50: 5.41

Cc1cnc(C)c(N2CCN(c3cc(C(C)C)ccc3NC(=O)c3cccnc3)CC2)n1 [Compound 46]
pIC50: 3.85

CC(C)c1ccc(NC(=O)c2cccnc2)c(N2CCN(c3nccs3)CC2)c1 [Compound 47]
pIC50: 5.60

Cc1csc(N2CCN(c3cc(C(C)C)ccc3NC(=O)c3cccnc3)CC2)n1 [Compound 48]
pIC50: 4.82

Cc1cnc(N2CCN(c3cc(C(C)C)ccc3NC(=O)c3cccnc3)CC2)s1 [Compound 49]
pIC50: 5.41

CC(C)c1ccc(NC(=O)c2cccnc2)c(N2CCN(c3ccccn3)CC2)c1 [Compound 51]
pIC50: 5.14

CC(C)c1ccc(NC(=O)c2cccnc2)c(N2CCN(C(=O)Nc3ccccc3)CC2)c1 [Compound 52]
pIC50: < 4.00

CC(C)c1ccc(NC(=O)c2cccnc2)c(N2CCN(C(=O)OC(C)(C)C)CC2)c1 [Compound 53]
pIC50: < 3.70

CC(C)c1ccc(NC(=O)c2cccnc2)c(N2CCN(S(C)(=O)=O)CC2)c1 [Compound 54]
pIC50: < 3.70

CC(C)c1ccc(NC(=O)c2cccnc2)c(N2CCN(C(=O)CN(C)C)CC2)c1 [Compound 55]
pIC50: < 3.70

CNCC(=O)N1CCN(c2cc(C(C)C)ccc2NC(=O)c2cccnc2)CC1 [Compound 56]
pIC50: < 3.70

Cc1ncccc1C(=O)Nc1ccc(C(C)C)cc1N1CCN(c2ccncn2)CC1 [Compound 57]
pIC50: 7.00

CSCc1nccc(N2CCN(c3cc(C(C)C)ccc3NC(=O)c3cccnc3C)CC2)n1 [Compound 58]
pIC50: 7.57

Cc1ncccc1C(=O)Nc1ccc(C(C)C)cc1N1CCN(c2ncnc3ccsc23)CC1 [Compound 59]
pIC50: 7.85

Cc1ncccc1C(=O)Nc1ccc(C(C)C)cc1N1CCN(c2ncnc3[nH]ccc23)CC1 [Compound 60]
pIC50: 7.49

Cc1ncccc1C(=O)Nc1ccc(C(C)C)cc1N1CCN(c2cncc(C3CC3)n2)CC1 [Compound 61]
pIC50: 6.00

Cc1ncccc1C(=O)Nc1ccc(C(C)C)cc1N1CCN(c2cncc(-c3ccccc3)n2)CC1 [Compound 62]
pIC50: 4.77

CC(C)(C)c1ccc(NC(=O)c2cccnc2)c(N2CCN(c3cnccn3)CC2)c1 [Compound 63]
pIC50: 5.52

C=C(C)c1ccc(NC(=O)c2cccnc2)c(N2CCN(c3cnccn3)CC2)c1 [Compound 64]
pIC50: 5.15

O=C(Nc1ccc(Br)cc1N1CCN(c2cnccn2)CC1)c1cccnc1 [Compound 65]
pIC50: < 4.70

O=C(Nc1ccc(C2CC2)cc1N1CCN(c2cnccn2)CC1)c1cccnc1 [Compound 66]
pIC50: 4.92

O=C(Nc1ccc(-c2ccccc2)cc1N1CCN(c2cnccn2)CC1)c1cccnc1 [Compound 67]
pIC50: 5.10

O=C(Nc1ccc(C(F)(F)F)cc1N1CCN(c2cnccn2)CC1)c1cccnc1 [Compound 68]
pIC50: < 4.70
